Reference: US5061794A, “Cephalosporin derivatives, and antibacterial agents” (priority 1986, dated 1991)
Like-named read-outs stand apart in the source and are kept apart here.

Experiments:
[1] = system: Ps. cepacia 23; assay: in vitro antibacterial activity, agar plate dilution method (MIC); type: cell-based, Pseudomonas cepacia; details: read-out: Minimum Inhibitory Concentration (MIC)
In short: (§1)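 Inoculum 10^6 CFU/ml; medium Mueller Hinton agar with graded antibiotic; 37° C./16 h; endpoint MIC (μg/ml).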

[2] = system: K. oxytoca GN10650; assay: as above; type: cell-based; details: Klebsiella oxytoca, 10^6 CFU/ml
In short: as §1

[3] = system: S. aureus 209P NIHJ-JC1; assay: as above; type: cell-based; details: Staphylococcus aureus, 16 h
In short: as §1

[4] = system: P. vulgaris No. 33; assay: as above; type: cell-based; details: Proteus vulgaris, NO.33, 16 h, read-out: Minimum Inhibitory Concentration (MIC), *P. vulgaris No. 33, lactamase-producing strain; 10^6 CFU/ml
In short: as §1

[5] = system: K. pneumoniae PCI-602; assay: as above; type: cell-based; details: Klebsiella pneumoniae, PCI602, 16 h, 10^6 CFU/ml
In short: as §1

[6] = system: M. morganii GN5407; assay: as above; type: cell-based; details: Morganella morganii, GN5407, 16 h, read-out: Minimum Inhibitory Concentration (MIC), *M. morganii GN5407, lactamase-producing strain; 10^6 CFU/ml
In short: as §1

[7] = system: K. pneumoniae No. 42; assay: as above; type: cell-based; details: Klebsiella pneumoniae, NO.42, 16 h, read-out: Minimum Inhibitory Concentration (MIC), *K. pneumoniae No. 42, lactamase-producing strain; 10^6 CFU/ml
In short: as §1

[8] = system: E. cloacae 963; assay: as above; type: cell-based; details: 10^6 CFU/ml
In short: as §1

[9] = system: P. vulgaris HX-19; assay: as above; type: cell-based; details: Proteus vulgaris, HX19, 16 h, P. vulgaris HX-19; 10^6 CFU/ml; read-out: Minimum Inhibitory Concentration (MIC)
In short: as §1

[10] = system: E. coli GN5482; assay: as above; type: cell-based; details: Escherichia coli
In short: as §1

[11] = system: E. coli NIHJ JC2; assay: as above; type: cell-based; details: Escherichia coli, NIHJJC2, 16 h, read-out: Minimum Inhibitory Concentration (MIC), E. coli NIHJ JC2, 10^6 CFU/ml, 37° C.
In short: as §1

[12] = system: S. marcescens IAM 1184; assay: as above; type: cell-based; details: Serratia marcescens, IAM1184, 16 h, read-out: Minimum Inhibitory Concentration (MIC)
In short: as §1

[13] = system: E. cloacae Nek 39; assay: as above; type: cell-based; details: Enterobacter cloacae, NEK39, 16 h, read-out: Minimum Inhibitory Concentration (MIC), *E. cloacae Nek 39, lactamase-producing strain; 10^6 CFU/ml
In short: as §1

[14] = system: S. marcescens No. 16-2; assay: as above; type: cell-based; details: Serratia marcescens, NO.162, 16 h, 10^6 CFU/ml
In short: as §1

[15] = system: E. coli CSH2 (RK1); assay: microbe, parasite or virus in culture; type: cell-based; details: Escherichia coli, 16 h, read-out: Minimum Inhibitory Concentration (MIC), *E. coli CSH2 (RK1), lactamase-producing strain; 10^6 CFU/ml
In short: as §1

[16] = system: E. coli CSH(RE45); assay: microbe, parasite or virus in culture; type: cell-based; details: Escherichia coli, 16 h, read-out: Minimum Inhibitory Concentration (MIC), *E. coli CSH(RE45), lactamase-producing strain; 10^6 CFU/ml
In short: as §1

[17] = system: A. calcoaceticus No. 4; assay: in vitro antibacterial activity, agar plate dilution method (MIC); type: cell-based, Acinetobacter calcoaceticus; details: Acinetobacter calcoaceticus, NO.4, 16 h, 10^6 CFU/ml
In short: as §1

[18] = system: Ps. aeruginosa IF03445; assay: as above; type: cell-based, Pseudomonas aeruginosa; details: Pseudomonas aeruginosa, 10^6 CFU/ml
In short: as §1

[19] = system: Ps. aeruginosa AKR17; assay: as above; type: cell-based, Pseudomonas aeruginosa; details: Pseudomonas aeruginosa, 10^6 CFU/ml
In short: as §1

[20] = system: Ps. aeruginosa AK 109; assay: as above; type: cell-based, Pseudomonas aeruginosa; details: Pseudomonas aeruginosa, AK109, 16 h, read-out: Minimum Inhibitory Concentration (MIC)
In short: as §1

[21] = 16 h, *K. oxytoca GN10650, lactamase-producing strain, read-out: Minimum Inhibitory Concentration (MIC)
[22] = S. aureus 209P NIHJ-JC1, 10^6 CFU/ml, 37° C., 16 hours, read-out: Minimum Inhibitory Concentration (MIC)
[23] = K. pneumoniae PCI-602, read-out: Minimum Inhibitory Concentration (MIC)
[24] = Enterobacter cloacae, 963, 16 h, read-out: Minimum Inhibitory Concentration (MIC), E. cloacae 963
[25] = *S. marcescens No. 16-2, lactamase-producing strain, read-out: Minimum Inhibitory Concentration (MIC)
[26] = A. calcoaceticus No. 4, read-out: Minimum Inhibitory Concentration (MIC)
[27] = 16 h, Ps. aeruginosa IF03445, read-out: Minimum Inhibitory Concentration (MIC)
[28] = 16 h, Ps. aeruginosa AKR17, read-out: Minimum Inhibitory Concentration (MIC)
[29] = Ps. aeruginosa AK 109, 10^6 CFU/ml
[30] = Burkholderia cepacia, 16 h, Ps. cepacia 23, 10^6 CFU/ml
[31] = GN10650, 16 h, read-out: Minimum Inhibitory Concentration (MIC), *K. oxytoca GN10650, lactamase-producing strain
[32] = read-out: Minimum Inhibitory Concentration (MIC), K. pneumoniae PCI-602
[33] = GN5482, 16 h, read-out: Minimum Inhibitory Concentration (MIC), *E. coli GN5482, lactamase-producing strain, 10^6 CFU/ml
[34] = S. marcescens IAM 1184, 10^6 CFU/ml
[35] = read-out: Minimum Inhibitory Concentration (MIC), *S. marcescens No. 16-2, lactamase-producing strain
[36] = IF03445, 16 h, read-out: Minimum Inhibitory Concentration (MIC), Ps. aeruginosa IF03445
[37] = read-out: Minimum Inhibitory Concentration (MIC), S. aureus 209P NIHJ-JC1, 10^6 CFU/ml, 37° C., 16 hours
[38] = Enterobacter cloacae, 16 h, E. cloacae 963, read-out: Minimum Inhibitory Concentration (MIC)
[39] = GN5482, 16 h, read-out: Minimum Inhibitory Concentration (MIC)
[40] = read-out: Minimum Inhibitory Concentration (MIC), A. calcoaceticus No. 4

Row | Compound | MIC [4] [µg/mL] | MIC [6] [µg/mL] | MIC [7] [µg/mL] | MIC [8, 24] [µg/mL] | MIC [9] [µg/mL] | MIC [11] [µg/mL] | MIC [13] [µg/mL] | MIC [15] [µg/mL] | MIC [16] [µg/mL] | MIC [17, 26] [µg/mL] | MIC [18, 27] [µg/mL] | MIC [19, 28] [µg/mL] | MIC [20, 29] [µg/mL] | MIC [1, 30] [µg/mL] | MIC [2, 31] [µg/mL] | MIC [5, 32] [µg/mL] | MIC [10, 33] [µg/mL] | MIC [12, 34] [µg/mL] | MIC [14, 35] [µg/mL] | MIC [18, 36] [µg/mL] | further results
1 | CO/N=C(\C(=O)N[C@@H]1C(=O)N2C(C(=O)O)=C(CSc3nc(-c4ccc(OC(C)=O)cc4)c(CC(=O)O)s3)CS[C@H]12)c1csc(N)n1 [compound 18, disodium 3-[4-(4-acetoxyphenyl)-5-carboxylatemethylthiazol-2-yl]thiomethyl-7δ-[2-(2-aminothiazol-4-yl)-2-methoxyiminoacetamido]-3-cephem-4-carboxylate, reference compound] | 0.1 | 0.39 | 0.78 | 0.78 | < 0.006 | 0.78 | 12.5 | 0.78 | 1.56 | 100 | 100 | > 100 | > 100 |  |  |  |  |  |  |  | MIC ([1]; Burkholderia cepacia, 23, 16 h): 12.5 µg/mL; MIC [2, 21]: 25 µg/mL; MIC [3, 22]: 3.12 µg/mL; MIC [5, 23]: 0.2 µg/mL; MIC ([10]; 16 h, *E. coli GN5482, lactamase-producing strain, 10^6 CFU/ml, read-out: Minimum Inhibitory Concentration (MIC)): 3.12 µg/mL; MIC [12]: 0.78 µg/mL; MIC [14, 25]: 100 µg/mL
2 | Nc1nc(/C(=N/OC(C(=O)O)c2ccccc2)C(=O)N[C@@H]2C(=O)N3C(C(=O)O)=C(CSc4nnc(-c5ccc(O)c(O)c5)o4)CS[C@H]23)cs1 (stereo partly drawn) [Ex. 15, disodium 7δ-[2-(2-aminothiazol-4-yl)-2-(α-carboxylatebenzyloxyimino)acetamido]-3-[5-(3,4-dihydroxyphenyl)-1,3,4-oxadiazol-2-yl]thiomethyl-3-cephem-4-carboxylate] | 0.0125 | 0.05 | 0.05 | 0.025 | < 0.006 | 0.1 | 0.05 | < 0.006 | 3.12 | 0.05 |  |  |  | < 0.006 | 0.0125 | < 0.006 | 1.56 | 0.025 | 0.78 | 0.78 | MIC ([3]; read-out: Minimum Inhibitory Concentration (MIC)): 12.5 µg/mL; MIC ([19]; AKR17, 16 h, read-out: Minimum Inhibitory Concentration (MIC), Ps. aeruginosa AKR17): 0.78 µg/mL; MIC [20]: 0.39 µg/mL
3 | CO/N=C(\C(=O)N[C@@H]1C(=O)N2C(C(=O)O)=C(CSc3nnc(-c4ccc(O)c(O)c4)o3)CS[C@H]12)c1csc(N)n1 [Ex. 1, sodium 7β-[2-(2-aminothiazol-4-yl)-2-methoxyiminoacetamido]-3-[5-(3, 4dihydroxyphenyl)-1,3,4-oxadiazol-2-yl]thiomethyl-3-cephem-4-carboxylate] | 0.0125 | 0.0125 | 0.025 |  | < 0.006 | 0.05 | 0.05 | < 0.006 | 0.78 |  |  | > 100 |  | 0.1 | 0.39 | < 0.006 |  | < 0.006 | 0.78 | 0.78 | MIC [3, 37]: 1.56 µg/mL; MIC [8, 38]: < 0.006 µg/mL; MIC [10, 39]: 0.39 µg/mL; MIC [17, 40]: 0.1 µg/mL; MIC [20]: 0.39 µg/mL
4 | CC(C)ON=C(C(=O)NC1C(=O)N2C(C(=O)O)=C(CSc3nc(-c4ccc(O)c(O)c4)cs3)CSC12)c1csc(N)n1 (stereo not drawn) [Ex. 41, sodium 7β-[2-(2-aminothiazol-4-yl)-2-isooropoxyiminoacetamido]-3-[4-(3,4-dihydroxyphenyl)-thiazol-2-yl]thiomethyl-3-cechem-4-carboxylate] | 0.05 | 0.05 | 0.1 |  | 0.025 | 0.2 | 0.2 | 0.0125 | < 0.006 |  |  | 50 |  | 0.05 | 0.39 | < 0.006 | 0.78 | 0.05 | 6.25 | 0.78 | MIC [3, 37]: 1.56 µg/mL; MIC [8, 38]: 0.1 µg/mL; MIC [17, 40]: 0.39 µg/mL; MIC [20]: 0.39 µg/mL
5 | CO/N=C(\C(=O)N[C@@H]1C(=O)N2C(C(=O)O)=C(CSc3ncc(-c4ccc(O)cc4)o3)CS[C@H]12)c1csc(N)n1 [compound 23, sodium 7β-[2-(2-aminothiazol-4-yl)-2-methoxyiminoacetamido]-3-[5-(4-hydroxyphenyl)-oxazol-2-yl]thiomethyl-3-cephem-4-carboxylate, reference compound] | 0.78 | 1.56 | 3.12 | 3.12 | < 0.006 | 1.56 | 6.25 | 0.78 | 0.78 | 50 | 50 | > 100 | 50 |  |  |  | 0.78 |  |  |  | MIC ([1]; Burkholderia cepacia, 23, 16 h): 3.12 µg/mL; MIC [2, 21]: 25 µg/mL; MIC [3, 22]: 0.2 µg/mL; MIC [5, 23]: 0.0125 µg/mL; MIC [12]: 0.78 µg/mL; MIC [14, 25]: 25 µg/mL
6 | CCO/N=C(\C(=O)N[C@@H]1C(=O)N2C(C(=O)O)=C(CSc3nnc(-c4ccc(OC(C)=O)c(OC(C)=O)c4)o3)CS[C@H]12)c1csc(N)n1 [Ex. 6, sodium 3-[5-(3,4-diacetoxyphenyl)-1,3,4-oxadiazol-2-yl]thiomethyl-78-[2-(2-aminothiazol-4-yl)-2-ethoxyiminoacetamido]-3-cephem-4-carboxylate] | 0.0125 | 0.0125 | 0.025 |  | < 0.006 | 0.05 | 0.05 | 0.0125 | 0.78 |  | 0.2 | > 100 | 0.1 | 0.05 | 0.39 | < 0.006 |  | < 0.006 | 0.78 |  | MIC [3, 37]: 1.56 µg/mL; MIC [8, 38]: < 0.006 µg/mL; MIC [10, 39]: 0.39 µg/mL; MIC [17, 40]: 0.1 µg/mL
